# The kinase profiling compilation of Christmann-Franck et al. (2016)
# Target: ACVR1 (human) (UniProt Q04771)
# Experiment: radiometric filter-binding kinase assay, Kinase HotSpot
# Settings: compound 0.5 µM; ATP 10 µM
# ACVR1 (human), sequence (Q04771 whole entry, looked up): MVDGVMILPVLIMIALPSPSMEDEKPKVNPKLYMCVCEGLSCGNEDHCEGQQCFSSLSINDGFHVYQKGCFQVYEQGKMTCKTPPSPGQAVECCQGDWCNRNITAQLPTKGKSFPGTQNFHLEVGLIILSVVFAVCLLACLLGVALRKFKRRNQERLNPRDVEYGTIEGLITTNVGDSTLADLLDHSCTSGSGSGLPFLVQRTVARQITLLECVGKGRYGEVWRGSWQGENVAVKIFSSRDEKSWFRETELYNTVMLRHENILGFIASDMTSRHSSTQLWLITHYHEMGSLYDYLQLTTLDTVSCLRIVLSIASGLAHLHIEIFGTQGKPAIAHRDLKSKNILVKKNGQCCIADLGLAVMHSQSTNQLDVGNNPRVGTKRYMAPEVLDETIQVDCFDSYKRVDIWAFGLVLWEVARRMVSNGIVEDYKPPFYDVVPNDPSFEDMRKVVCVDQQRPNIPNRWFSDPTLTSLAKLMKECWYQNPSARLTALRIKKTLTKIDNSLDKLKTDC
row,SMILES,residual activity
1,CCN1/C(=C/C(C)=O)Sc2ccc(OC)cc21,88.1%
2,Nc1nc(Nc2ccc(S(N)(=O)=O)cc2)nn1C(=O)c1c(F)cccc1F,104%
3,CCCNC(=O)Nc1ccc(Oc2ncnc3cc(OC)c(OC)cc23)cc1Cl,101%
4,O=C1Nc2cc(Br)ccc2/C1=C1/Nc2ccccc2/C1=N\O,114%

# Target: ACVR1B (human) (UniProt P36896)
# Experiment: as above
# Settings: compound 0.5 µM; ATP 10 µM
# ACVR1B (human), sequence (P36896 whole entry, looked up): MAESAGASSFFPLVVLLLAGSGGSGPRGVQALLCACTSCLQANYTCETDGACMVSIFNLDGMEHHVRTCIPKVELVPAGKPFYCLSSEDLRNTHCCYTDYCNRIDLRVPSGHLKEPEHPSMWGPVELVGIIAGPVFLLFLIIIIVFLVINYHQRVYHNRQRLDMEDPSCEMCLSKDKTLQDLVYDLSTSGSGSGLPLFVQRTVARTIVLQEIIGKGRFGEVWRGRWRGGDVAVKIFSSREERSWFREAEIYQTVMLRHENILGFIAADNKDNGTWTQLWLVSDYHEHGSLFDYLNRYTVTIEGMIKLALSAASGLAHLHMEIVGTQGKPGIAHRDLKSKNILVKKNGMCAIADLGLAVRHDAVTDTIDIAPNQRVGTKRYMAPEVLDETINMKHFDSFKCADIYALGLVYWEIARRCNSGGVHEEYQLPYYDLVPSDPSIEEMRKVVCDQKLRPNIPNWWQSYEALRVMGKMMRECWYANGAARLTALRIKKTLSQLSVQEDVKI
row,SMILES,residual activity
1,CCN1/C(=C/C(C)=O)Sc2ccc(OC)cc21,109%
2,Nc1nc(Nc2ccc(S(N)(=O)=O)cc2)nn1C(=O)c1c(F)cccc1F,118%
3,CCCNC(=O)Nc1ccc(Oc2ncnc3cc(OC)c(OC)cc23)cc1Cl,99.6%
4,O=C1Nc2cc(Br)ccc2/C1=C1/Nc2ccccc2/C1=N\O,100%

# Target: AKT3 (human) (UniProt Q9Y243)
# Experiment: as above
# Settings: compound 0.5 µM; ATP 10 µM
row,SMILES,residual activity
1,CCN1/C(=C/C(C)=O)Sc2ccc(OC)cc21,96.1%
2,Nc1nc(Nc2ccc(S(N)(=O)=O)cc2)nn1C(=O)c1c(F)cccc1F,95%
3,CCCNC(=O)Nc1ccc(Oc2ncnc3cc(OC)c(OC)cc23)cc1Cl,88.9%
4,O=C1Nc2cc(Br)ccc2/C1=C1/Nc2ccccc2/C1=N\O,89.4%

# Target: AURKB (human) (UniProt Q96GD4)
# Experiment: as above
# Settings: compound 0.5 µM; ATP 10 µM
# AURKB (human), sequence (Q96GD4 whole entry, looked up): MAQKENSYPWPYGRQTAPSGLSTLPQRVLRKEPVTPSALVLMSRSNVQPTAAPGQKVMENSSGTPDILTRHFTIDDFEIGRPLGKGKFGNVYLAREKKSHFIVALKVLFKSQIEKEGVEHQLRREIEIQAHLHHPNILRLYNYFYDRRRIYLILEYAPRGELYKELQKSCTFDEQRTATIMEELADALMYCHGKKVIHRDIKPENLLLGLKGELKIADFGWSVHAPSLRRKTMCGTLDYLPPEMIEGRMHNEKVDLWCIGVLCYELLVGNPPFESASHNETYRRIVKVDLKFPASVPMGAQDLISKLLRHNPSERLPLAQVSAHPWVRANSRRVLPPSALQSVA
row,SMILES,residual activity
1,CCN1/C(=C/C(C)=O)Sc2ccc(OC)cc21,87.9%
2,CCCNC(=O)Nc1ccc(Oc2ncnc3cc(OC)c(OC)cc23)cc1Cl,37%
3,O=C1Nc2cc(Br)ccc2/C1=C1/Nc2ccccc2/C1=N\O,39.1%

# Target: CAMK1 (human) (UniProt Q14012)
# Experiment: as above
# Settings: compound 0.5 µM; ATP 10 µM
row,SMILES,residual activity
1,CCN1/C(=C/C(C)=O)Sc2ccc(OC)cc21,88.5%
2,Nc1nc(Nc2ccc(S(N)(=O)=O)cc2)nn1C(=O)c1c(F)cccc1F,90.4%
3,CCCNC(=O)Nc1ccc(Oc2ncnc3cc(OC)c(OC)cc23)cc1Cl,96.7%
4,O=C1Nc2cc(Br)ccc2/C1=C1/Nc2ccccc2/C1=N\O,96%

# Target: CAMKK2 (human) (UniProt Q96RR4)
# Experiment: as above
# Settings: compound 0.5 µM; ATP 10 µM
row,SMILES,residual activity
1,CCN1/C(=C/C(C)=O)Sc2ccc(OC)cc21,95.5%
2,Nc1nc(Nc2ccc(S(N)(=O)=O)cc2)nn1C(=O)c1c(F)cccc1F,61.5%
3,CCCNC(=O)Nc1ccc(Oc2ncnc3cc(OC)c(OC)cc23)cc1Cl,91.5%
4,O=C1Nc2cc(Br)ccc2/C1=C1/Nc2ccccc2/C1=N\O,70.1%

# Target: CSF1R (human) (UniProt P07333)
# Experiment: as above
# Settings: compound 0.5 µM; ATP 10 µM
# CSF1R (human), sequence (P07333 whole entry, looked up): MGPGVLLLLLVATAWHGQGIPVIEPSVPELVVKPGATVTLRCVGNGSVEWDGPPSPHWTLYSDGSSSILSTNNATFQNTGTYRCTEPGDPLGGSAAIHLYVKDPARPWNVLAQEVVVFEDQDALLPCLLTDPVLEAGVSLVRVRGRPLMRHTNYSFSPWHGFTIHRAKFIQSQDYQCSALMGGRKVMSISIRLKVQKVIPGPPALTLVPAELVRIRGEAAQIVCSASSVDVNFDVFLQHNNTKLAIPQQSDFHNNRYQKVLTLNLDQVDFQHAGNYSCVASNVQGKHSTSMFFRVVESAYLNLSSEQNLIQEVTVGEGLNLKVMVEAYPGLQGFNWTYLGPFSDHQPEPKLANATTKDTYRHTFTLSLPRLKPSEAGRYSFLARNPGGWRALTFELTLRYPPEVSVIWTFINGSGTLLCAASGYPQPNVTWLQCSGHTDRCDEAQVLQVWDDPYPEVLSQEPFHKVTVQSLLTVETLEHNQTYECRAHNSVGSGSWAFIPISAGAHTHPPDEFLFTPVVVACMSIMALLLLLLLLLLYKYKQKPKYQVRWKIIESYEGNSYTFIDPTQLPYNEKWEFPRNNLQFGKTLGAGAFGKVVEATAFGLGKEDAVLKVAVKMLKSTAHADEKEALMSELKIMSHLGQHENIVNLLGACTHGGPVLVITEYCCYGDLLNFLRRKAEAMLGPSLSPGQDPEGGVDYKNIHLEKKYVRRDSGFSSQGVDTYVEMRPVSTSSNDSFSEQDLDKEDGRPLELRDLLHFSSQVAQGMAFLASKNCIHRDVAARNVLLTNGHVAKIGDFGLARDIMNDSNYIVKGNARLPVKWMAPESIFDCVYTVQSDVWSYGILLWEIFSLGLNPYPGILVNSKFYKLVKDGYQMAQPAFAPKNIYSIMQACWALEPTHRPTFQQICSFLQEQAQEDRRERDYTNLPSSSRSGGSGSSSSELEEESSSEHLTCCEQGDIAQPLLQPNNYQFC
row,SMILES,residual activity
1,CCN1/C(=C/C(C)=O)Sc2ccc(OC)cc21,93.8%
2,Nc1nc(Nc2ccc(S(N)(=O)=O)cc2)nn1C(=O)c1c(F)cccc1F,49.2%
3,CCCNC(=O)Nc1ccc(Oc2ncnc3cc(OC)c(OC)cc23)cc1Cl,51.1%
4,O=C1Nc2cc(Br)ccc2/C1=C1/Nc2ccccc2/C1=N\O,74.4%

# Target: CSNK1A1 (human) (UniProt P48729)
# Experiment: as above
# Settings: compound 0.5 µM; ATP 10 µM
# CSNK1A1 (human), sequence (P48729 whole entry, looked up): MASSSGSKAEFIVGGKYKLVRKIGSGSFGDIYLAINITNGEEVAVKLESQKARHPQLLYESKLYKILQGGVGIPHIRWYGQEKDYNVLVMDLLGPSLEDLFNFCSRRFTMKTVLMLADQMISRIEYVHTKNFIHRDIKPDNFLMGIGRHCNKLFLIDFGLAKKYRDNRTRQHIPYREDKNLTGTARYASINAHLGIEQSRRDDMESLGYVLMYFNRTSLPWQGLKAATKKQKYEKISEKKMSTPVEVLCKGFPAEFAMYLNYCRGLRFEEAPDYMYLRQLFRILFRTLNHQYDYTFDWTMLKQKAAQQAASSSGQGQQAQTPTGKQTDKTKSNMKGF
row,SMILES,residual activity
1,CCN1/C(=C/C(C)=O)Sc2ccc(OC)cc21,53%
2,Nc1nc(Nc2ccc(S(N)(=O)=O)cc2)nn1C(=O)c1c(F)cccc1F,95.1%
3,CCCNC(=O)Nc1ccc(Oc2ncnc3cc(OC)c(OC)cc23)cc1Cl,98.9%
4,O=C1Nc2cc(Br)ccc2/C1=C1/Nc2ccccc2/C1=N\O,95.1%

# Target: DYRK3 (human) (UniProt O43781)
# Experiment: as above
# Settings: compound 0.5 µM; ATP 10 µM
row,SMILES,residual activity
1,CCN1/C(=C/C(C)=O)Sc2ccc(OC)cc21,50.4%
2,Nc1nc(Nc2ccc(S(N)(=O)=O)cc2)nn1C(=O)c1c(F)cccc1F,101%
3,CCCNC(=O)Nc1ccc(Oc2ncnc3cc(OC)c(OC)cc23)cc1Cl,99.7%
4,O=C1Nc2cc(Br)ccc2/C1=C1/Nc2ccccc2/C1=N\O,104%

# Target: DYRK4 (human) (UniProt Q9NR20)
# Experiment: as above
# Settings: compound 0.5 µM; ATP 10 µM
row,SMILES,residual activity
1,CCN1/C(=C/C(C)=O)Sc2ccc(OC)cc21,82.3%
2,Nc1nc(Nc2ccc(S(N)(=O)=O)cc2)nn1C(=O)c1c(F)cccc1F,105%
3,CCCNC(=O)Nc1ccc(Oc2ncnc3cc(OC)c(OC)cc23)cc1Cl,106%
4,O=C1Nc2cc(Br)ccc2/C1=C1/Nc2ccccc2/C1=N\O,99.4%

# Target: ERBB2 (human) (UniProt P04626)
# Experiment: as above
# Settings: compound 0.5 µM; ATP 10 µM
# ERBB2 (human), sequence (P04626 whole entry, looked up): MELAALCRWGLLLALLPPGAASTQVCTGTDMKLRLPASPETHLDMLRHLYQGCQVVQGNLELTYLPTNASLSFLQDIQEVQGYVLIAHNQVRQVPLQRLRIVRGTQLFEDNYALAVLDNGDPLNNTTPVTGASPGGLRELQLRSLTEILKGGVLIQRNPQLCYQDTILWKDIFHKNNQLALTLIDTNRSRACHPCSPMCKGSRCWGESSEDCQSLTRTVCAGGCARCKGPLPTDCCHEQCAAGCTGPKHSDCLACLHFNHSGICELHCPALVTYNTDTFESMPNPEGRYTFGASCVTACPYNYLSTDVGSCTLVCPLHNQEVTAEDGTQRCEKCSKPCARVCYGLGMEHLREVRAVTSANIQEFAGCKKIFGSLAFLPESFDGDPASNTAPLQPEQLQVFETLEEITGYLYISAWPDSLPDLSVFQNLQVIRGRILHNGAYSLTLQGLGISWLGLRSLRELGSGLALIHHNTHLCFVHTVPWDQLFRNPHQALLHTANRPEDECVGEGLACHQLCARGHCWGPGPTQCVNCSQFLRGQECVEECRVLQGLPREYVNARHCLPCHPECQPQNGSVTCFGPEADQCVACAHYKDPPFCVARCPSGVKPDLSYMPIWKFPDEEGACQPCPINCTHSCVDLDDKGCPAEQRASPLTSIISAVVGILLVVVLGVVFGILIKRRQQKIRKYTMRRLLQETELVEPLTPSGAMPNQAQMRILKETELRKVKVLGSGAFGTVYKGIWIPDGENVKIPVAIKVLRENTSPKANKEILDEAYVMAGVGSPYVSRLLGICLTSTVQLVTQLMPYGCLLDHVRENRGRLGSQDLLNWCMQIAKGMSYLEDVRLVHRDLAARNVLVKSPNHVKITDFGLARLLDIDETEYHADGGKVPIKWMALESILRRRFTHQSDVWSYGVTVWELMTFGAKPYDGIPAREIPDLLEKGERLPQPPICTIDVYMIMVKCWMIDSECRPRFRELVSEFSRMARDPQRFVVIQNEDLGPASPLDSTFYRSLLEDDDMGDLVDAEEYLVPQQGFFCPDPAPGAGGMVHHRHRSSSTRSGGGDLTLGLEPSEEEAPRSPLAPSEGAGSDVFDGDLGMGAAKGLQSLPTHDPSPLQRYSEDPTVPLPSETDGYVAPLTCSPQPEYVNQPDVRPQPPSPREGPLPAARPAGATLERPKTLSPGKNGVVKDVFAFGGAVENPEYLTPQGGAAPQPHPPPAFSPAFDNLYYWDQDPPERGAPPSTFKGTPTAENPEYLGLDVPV
row,SMILES,residual activity
1,CCN1/C(=C/C(C)=O)Sc2ccc(OC)cc21,99.9%
2,Nc1nc(Nc2ccc(S(N)(=O)=O)cc2)nn1C(=O)c1c(F)cccc1F,91.1%
3,CCCNC(=O)Nc1ccc(Oc2ncnc3cc(OC)c(OC)cc23)cc1Cl,116%
4,O=C1Nc2cc(Br)ccc2/C1=C1/Nc2ccccc2/C1=N\O,102%

# Target: ERBB4 (human) (UniProt Q15303)
# Experiment: as above
# Settings: compound 0.5 µM; ATP 10 µM
row,SMILES,residual activity
1,CCN1/C(=C/C(C)=O)Sc2ccc(OC)cc21,101%
2,Nc1nc(Nc2ccc(S(N)(=O)=O)cc2)nn1C(=O)c1c(F)cccc1F,110%
3,O=C1Nc2cc(Br)ccc2/C1=C1/Nc2ccccc2/C1=N\O,96.8%

# Target: FGFR2 (human) (UniProt P21802)
# Experiment: as above
# Settings: compound 0.5 µM; ATP 10 µM
# FGFR2 (human), sequence (P21802 whole entry, looked up): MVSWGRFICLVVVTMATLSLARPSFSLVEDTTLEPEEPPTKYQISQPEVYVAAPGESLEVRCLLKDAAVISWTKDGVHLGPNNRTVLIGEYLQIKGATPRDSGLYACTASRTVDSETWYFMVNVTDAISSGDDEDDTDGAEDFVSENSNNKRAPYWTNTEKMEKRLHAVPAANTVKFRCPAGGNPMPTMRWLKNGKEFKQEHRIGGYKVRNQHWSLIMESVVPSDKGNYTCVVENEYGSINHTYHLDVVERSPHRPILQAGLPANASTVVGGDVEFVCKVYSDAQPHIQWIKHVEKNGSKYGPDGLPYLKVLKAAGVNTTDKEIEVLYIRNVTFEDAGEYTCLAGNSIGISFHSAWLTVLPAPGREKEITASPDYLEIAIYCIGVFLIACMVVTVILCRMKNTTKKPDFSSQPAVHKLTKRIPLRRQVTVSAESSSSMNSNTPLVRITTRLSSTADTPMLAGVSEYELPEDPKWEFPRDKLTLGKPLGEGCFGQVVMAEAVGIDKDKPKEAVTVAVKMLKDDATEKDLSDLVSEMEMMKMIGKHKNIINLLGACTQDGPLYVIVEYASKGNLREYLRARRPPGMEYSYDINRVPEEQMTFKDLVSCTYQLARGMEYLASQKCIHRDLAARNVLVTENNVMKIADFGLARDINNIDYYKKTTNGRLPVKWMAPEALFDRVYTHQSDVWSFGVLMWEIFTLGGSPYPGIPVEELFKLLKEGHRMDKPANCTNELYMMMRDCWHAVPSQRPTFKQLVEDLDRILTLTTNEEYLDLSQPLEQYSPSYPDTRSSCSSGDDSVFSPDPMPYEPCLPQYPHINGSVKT
row,SMILES,residual activity
1,CCN1/C(=C/C(C)=O)Sc2ccc(OC)cc21,97.1%
2,Nc1nc(Nc2ccc(S(N)(=O)=O)cc2)nn1C(=O)c1c(F)cccc1F,79.7%
3,CCCNC(=O)Nc1ccc(Oc2ncnc3cc(OC)c(OC)cc23)cc1Cl,91.3%
4,O=C1Nc2cc(Br)ccc2/C1=C1/Nc2ccccc2/C1=N\O,59.2%

# Target: HIPK2 (human) (UniProt Q9H2X6)
# Experiment: as above
# Settings: compound 0.5 µM; ATP 10 µM
row,SMILES,residual activity
1,CCN1/C(=C/C(C)=O)Sc2ccc(OC)cc21,100%
2,Nc1nc(Nc2ccc(S(N)(=O)=O)cc2)nn1C(=O)c1c(F)cccc1F,72.8%
3,CCCNC(=O)Nc1ccc(Oc2ncnc3cc(OC)c(OC)cc23)cc1Cl,97.9%
4,O=C1Nc2cc(Br)ccc2/C1=C1/Nc2ccccc2/C1=N\O,96.2%

# Target: JAK3 JH1 JH2 (human) (UniProt P52333)
# Experiment: as above
# Settings: compound 0.5 µM; ATP 10 µM
row,SMILES,residual activity
1,CCN1/C(=C/C(C)=O)Sc2ccc(OC)cc21,103%
2,Nc1nc(Nc2ccc(S(N)(=O)=O)cc2)nn1C(=O)c1c(F)cccc1F,8.5%
3,CCCNC(=O)Nc1ccc(Oc2ncnc3cc(OC)c(OC)cc23)cc1Cl,88.9%
4,O=C1Nc2cc(Br)ccc2/C1=C1/Nc2ccccc2/C1=N\O,53.3%

# Target: LCK (human) (UniProt P06239)
# Experiment: as above
# Settings: compound 0.5 µM; ATP 10 µM
row,SMILES,residual activity
1,CCN1/C(=C/C(C)=O)Sc2ccc(OC)cc21,99.4%
2,Nc1nc(Nc2ccc(S(N)(=O)=O)cc2)nn1C(=O)c1c(F)cccc1F,87.9%
3,CCCNC(=O)Nc1ccc(Oc2ncnc3cc(OC)c(OC)cc23)cc1Cl,81.8%
4,O=C1Nc2cc(Br)ccc2/C1=C1/Nc2ccccc2/C1=N\O,39%

# Target: MAP2K1 (human) (UniProt Q02750)
# Experiment: as above
# Settings: compound 0.5 µM; ATP 10 µM
row,SMILES,residual activity
1,CCN1/C(=C/C(C)=O)Sc2ccc(OC)cc21,98.7%
2,Nc1nc(Nc2ccc(S(N)(=O)=O)cc2)nn1C(=O)c1c(F)cccc1F,93.9%
3,CCCNC(=O)Nc1ccc(Oc2ncnc3cc(OC)c(OC)cc23)cc1Cl,99.2%
4,O=C1Nc2cc(Br)ccc2/C1=C1/Nc2ccccc2/C1=N\O,103%

# Target: MAP3K11 (human) (UniProt Q16584)
# Experiment: as above
# Settings: compound 0.5 µM; ATP 10 µM
row,SMILES,residual activity
1,CCN1/C(=C/C(C)=O)Sc2ccc(OC)cc21,102%
2,Nc1nc(Nc2ccc(S(N)(=O)=O)cc2)nn1C(=O)c1c(F)cccc1F,47.2%
3,CCCNC(=O)Nc1ccc(Oc2ncnc3cc(OC)c(OC)cc23)cc1Cl,89.2%
4,O=C1Nc2cc(Br)ccc2/C1=C1/Nc2ccccc2/C1=N\O,16%

# Target: MAP3K2 (human) (UniProt Q9Y2U5)
# Experiment: as above
# Settings: compound 0.5 µM; ATP 10 µM
row,SMILES,residual activity
1,CCN1/C(=C/C(C)=O)Sc2ccc(OC)cc21,101%
2,Nc1nc(Nc2ccc(S(N)(=O)=O)cc2)nn1C(=O)c1c(F)cccc1F,11.3%
3,CCCNC(=O)Nc1ccc(Oc2ncnc3cc(OC)c(OC)cc23)cc1Cl,89.5%
4,O=C1Nc2cc(Br)ccc2/C1=C1/Nc2ccccc2/C1=N\O,90.3%

# Target: MARK4 (human) (UniProt Q96L34)
# Experiment: as above
# Settings: compound 0.5 µM; ATP 10 µM
row,SMILES,residual activity
1,CCN1/C(=C/C(C)=O)Sc2ccc(OC)cc21,102%
2,Nc1nc(Nc2ccc(S(N)(=O)=O)cc2)nn1C(=O)c1c(F)cccc1F,48%
3,CCCNC(=O)Nc1ccc(Oc2ncnc3cc(OC)c(OC)cc23)cc1Cl,110%

# Target: MATK (human) (UniProt P42679)
# Experiment: as above
# Settings: compound 0.5 µM; ATP 10 µM
row,SMILES,residual activity
1,CCN1/C(=C/C(C)=O)Sc2ccc(OC)cc21,89.2%
2,Nc1nc(Nc2ccc(S(N)(=O)=O)cc2)nn1C(=O)c1c(F)cccc1F,104%
3,CCCNC(=O)Nc1ccc(Oc2ncnc3cc(OC)c(OC)cc23)cc1Cl,96.8%
4,O=C1Nc2cc(Br)ccc2/C1=C1/Nc2ccccc2/C1=N\O,99.6%

# Target: MELK (human) (UniProt Q14680)
# Experiment: as above
# Settings: compound 0.5 µM; ATP 10 µM
row,SMILES,residual activity
1,CCN1/C(=C/C(C)=O)Sc2ccc(OC)cc21,94.6%
